Measured values from patent publication US9624175B2, “Fused-bicyclic aryl quinolinone derivatives as mutant-isocitrate dehydrogenase inhibitors” (Forma Therapeutics, Inc., priority 2015, dated 2017).

Molecular target: IDH1-R132H recombinant protein (Homo sapiens (Human), UniProt O75874, R132H)
Assay: IDH1-R132H enzymatic assay (NADPH consumption, diaphorase/resazurin readout)
Format: biochemical
Conditions: inhibition of NADPH consumption, 30 nM IDH1-R132H; read-out: Enzyme IDH1 R132H IC50
Procedure: Assays were performed in a 384-well black plate. An aliquot of 250 nL of compound was incubated with 10 μL of 30 nM IDH1-R132H or 10 nM IDH1-R132C recombinant protein in assay buffer (50 mM Tris pH=7.5, 150 mM NaCl, 5 mM MgCl2, 0.1% (w/v) Bovine Serum Albumin, and 0.01% Triton X-100) in each well at 25° C. for 15 minutes. After the plate was centrifuged briefly, an aliquot of 10 μL of 2 mM α-ketoglutarate and 20 μM NADPH solution prepared in assay buffer was then added to each well and the reaction was maintained at 25° C. for 45 minutes. An aliquot of 10 μL of diaphorase solution (0.15 U/mL diaphorase and 30 μM Resazurin in assay buffer) was added to each well. The plate was maintained at 25° C. for 15 minutes and then read on a plate reader with excitation and emission wavelengths at 535 nm and 590 nm, respectively. The IC50 of a given compound was calculated by fitting the dose response curve of inhibition of NADPH consumption at a given concentration with the four parameter logistic equation.

Sequence of IDH1-R132H recombinant protein (O75874 whole entry R132H): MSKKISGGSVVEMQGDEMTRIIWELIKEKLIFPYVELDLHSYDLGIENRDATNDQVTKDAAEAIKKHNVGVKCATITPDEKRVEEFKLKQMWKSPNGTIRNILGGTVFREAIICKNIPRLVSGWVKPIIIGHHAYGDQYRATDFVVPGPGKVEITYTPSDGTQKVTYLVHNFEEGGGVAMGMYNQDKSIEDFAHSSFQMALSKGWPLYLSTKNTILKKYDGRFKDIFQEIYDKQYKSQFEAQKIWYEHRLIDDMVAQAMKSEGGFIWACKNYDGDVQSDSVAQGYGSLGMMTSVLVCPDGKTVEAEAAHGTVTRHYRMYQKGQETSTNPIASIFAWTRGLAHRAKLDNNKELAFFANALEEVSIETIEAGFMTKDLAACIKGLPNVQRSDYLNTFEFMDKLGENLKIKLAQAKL

Row | IC50 [µM] | Compound
1 | > 10 | Cc1ccc2cc(NCc3cc4cc(Cl)ccc4[nH]c3=O)ccc2n1 [Compound I-32, 6-chloro-3-{[(2-methylquinolin-6-yl)amino]methyl}-1,2-dihydroquinolin-2-one]
2 | > 10 | O=c1[nH]c2ccc(Cl)cc2cc1CNc1ccc2cn[nH]c2c1 [Compound I-25, 6-chloro-3-{[(1H-indazol-6-yl)amino]methyl}-1,2-dihydroquinolin-2-one]
3 | 0.1 to 1 | CN1C(=O)CCc2cc(NCc3cc4cc(Cl)ccc4[nH]c3=O)ccc21 [Compound I-5, 6-chloro-3-{[(1-methyl-2-oxo-1,2,3,4-tetrahydroquinolin-6-yl)amino]methyl}-1,2-dihydroquinolin-2-one]
4 | > 10 | O=C1CCc2ccc(NCc3cc4cc(Cl)ccc4[nH]c3=O)cc2N1 [Compound I-18, 6-chloro-3-{[(2-oxo-1,2,3,4-tetrahydroquinolin-7-yl)amino]methyl}-1,2-dihydroquinolin-2-one]
5 | 0.1 to 1 | Cn1c(=O)oc2ccc(NCc3cc4cc(Cl)ccc4[nH]c3=O)cc21 [Compound I-2, 6-chloro-3-{[(3-methyl-2-oxo-2,3-dihydro-1,3-benzoxazol-5-yl)amino]methyl}-1,2-dihydroquinolin-2-one]
6 | > 10 | O=c1[nH]c2ccc(Cl)cc2cc1CNc1ccc2ncccc2c1 [Compound I-27, 6-chloro-3-{[(quinolin-6-yl)amino]methyl}-1,2-dihydroquinolin-2-one]
7 | 1 to 10 | O=c1[nH]c2ccc(Cl)cc2cc1CNc1cc2ccccc2cn1 [Compound I-6, 6-chloro-3-{[(isoquinolin-3-yl)amino]methyl}-1,2-dihydroquinolin-2-one]
8 | > 10 | Cc1n[nH]c2cc(NCc3cc4cc(Cl)ccc4[nH]c3=O)ccc12 [Compound I-19, 6-chloro-3-{[(3-methyl-1H-indazol-6-yl)amino]methyl}-1,2-dihydroquinolin-2-one]
9 | > 10 | COc1ccc2[nH]c(=O)c(CNc3ccc4nc(C)ccc4c3)cc2c1 [Compound I-35, 6-methoxy-3-{[(2-methylquinolin-6-yl)amino]methyl}-1,2-dihydroquinolin-2-one]
10 | > 10 | COc1ccc2[nH]c(=O)c(CNc3ccc4ncsc4c3)cc2c1 [Compound I-36, 3-{[(1,3-benzothiazol-6-yl)amino]methyl}-6-methoxy-1,2-dihydroquinolin-2-one]
11 | 1 to 10 | O=c1[nH]c2ccc(Cl)cc2cc1CNc1cccc2cccnc12 [Compound I-8, 6-chloro-3-{[(quinolin-8-yl)amino]methyl}-1,2-dihydroquinolin-2-one]
12 | > 10 | O=C1CCCc2c(NCc3cc4cc(Cl)ccc4[nH]c3=O)cccc21 [Compound I-22, 6-chloro-3-{[(5-oxo-5,6,7,8-tetrahydronaphthalen-1-yl)amino]methyl}-1,2-dihydroquinolin-2-one]
13 | 1 to 10 | O=C1COc2cc(NCc3cc4cc(Cl)ccc4[nH]c3=O)ccc2N1 [Compound I-11, 7-{[(6-chloro-2-oxo-1,2-dihydroquinolin-3-yl)methyl]amino}-3,4-dihydro-2H-1,4-benzoxazin-3-one]
14 | > 10 | COc1ccc2[nH]c(=O)c(CNc3ccc4ncccc4c3)cc2c1 [Compound I-39, 6-methoxy-3-{[(quinolin-6-yl)amino]methyl}-1,2-dihydroquinolin-2-one]
15 | > 10 | O=c1[nH]c2ccc(Cl)cc2cc1CNc1ccc2scnc2c1 [Compound I-29, 3-{[(1,3-benzothiazol-5-yl)amino]methyl}-6-chloro-1,2-dihydroquinolin-2-one]
16 | > 10 | COc1ccc2[nH]c(=O)c(CNc3ccc4sc(C)nc4c3)cc2c1 [Compound I-21, 6-methoxy-3-{[(2-methyl-1,3-benzothiazol-5-yl)amino]methyl}-1,2-dihydroquinolin-2-one]
17 | > 10 | O=c1[nH]c2ccc(Cl)cc2cc1CNc1cccc2c1OCCC2 [Compound I-16, 6-chloro-3-{[(3,4-dihydro-2H-1-benzopyran-8-yl)amino]methyl}-1,2-dihydroquinolin-2-one]
18 | 1 to 10 | O=C1CCc2cc(NCc3cc4cc(Cl)ccc4[nH]c3=O)ccc2N1 [Compound I-20, 6-chloro-3-{[(2-oxo-1,2,3,4-tetrahydroquinolin-6-yl)amino]methyl}-1,2-dihydroquinolin-2-one]
19 | > 10 | COc1ccc2[nH]c(=O)c(CNc3ccc4c(c3)OCCO4)cc2c1 [Compound I-30, 3-{[(2,3-dihydro-1,4-benzodioxin-6-yl)amino]methyl}-6-methoxy-1,2-dihydroquinolin-2-one]
20 | > 10 | O=c1[nH]c2ccc(Cl)cc2cc1CNc1ccc2[nH]ncc2c1 [Compound I-38, 6-chloro-3-{[(1H-indazol-5-yl)amino]methyl}-1,2-dihydroquinolin-2-one]
21 | 1 to 10 | CN1C(=O)COc2cc(NCc3cc4cc(Cl)ccc4[nH]c3=O)ccc21 [Compound I-10, 7-{[(6-chloro-2-oxo-1,2-dihydroquinolin-3-yl)methyl]amino}-4-methyl-3,4-dihydro-2H-1,4-benzoxazin-3-one]
22 | > 10 | O=c1[nH]c2ccc(Cl)cc2cc1CNc1ccc2[nH]cnc2c1 [Compound I-24, 3-{[(1H-1,3-benzodiazol-5-yl)amino]methyl}-6-chloro-1,2-dihydroquinolin-2-one]
23 | 1 to 10 | C[C@H](Nc1nccc2c1CCN2S(C)(=O)=O)c1cc2cc(Cl)ccc2[nH]c1=O [Compound I-43, 6-chloro-3-[(1S)-1-({1-methanesulfonyl-1H,2H,3H-pyrrolo[3,2-c]pyridin-4-yl}amino)ethyl]-1,2-dihydroquinolin-2-one]
24 | > 10 | O=c1[nH]c2ccc(Cl)cc2cc1CNc1ccc2nncn2n1 [Compound I-23, 6-chloro-3-[({[1,2,4]triazolo[4,3-b]pyridazin-6-yl}amino)methyl]-1,2-dihydroquinolin-2-one]
25 | > 10 | COc1cc2c(cc1NCc1cc3cc(Cl)ccc3[nH]c1=O)NC(=O)CC2 [Compound I-17, 6-chloro-3-{[(6-methoxy-2-oxo-1,2,3,4-tetrahydroquinolin-7-yl)amino]methyl}-1,2-dihydroquinolin-2-one]
26 | > 10 | COc1ccc2[nH]c(=O)c(CNc3ccc4cn[nH]c4c3)cc2c1 [Compound I-34, 3-{[(1H-indazol-6-yl)amino]methyl}-6-methoxy-1,2-dihydroquinolin-2-one]
27 | > 10 | O=c1[nH]c2ccc(Cl)cc2cc1CNc1ccc2ncsc2c1 [Compound I-26, 3-{[(1,3-benzothiazol-6-yl)amino]methyl}-6-chloro-1,2-dihydroquinolin-2-one]
28 | > 10 | O=c1[nH]c2ccc(Cl)cc2cc1CNc1ccc2c(c1)OCCO2 [Compound I-33, 6-chloro-3-{[(2,3-dihydro-1,4-benzodioxin-6-yl)amino]methyl}-1,2-dihydroquinolin-2-one]
29 | 1 to 10 | CC(C)(C)c1ccc2[nH]c(=O)c(CNc3ccc4[nH]ncc4c3)cc2c1 [Compound I-41, 6-tert-butyl-3-{[(1H-indazol-5-yl)amino]methyl}-1,2-dihydroquinolin-2-one]

Row | Compound | IC50 [µM]
30 | N#Cc1ccc(NCc2cc3cc(Cl)ccc3[nH]c2=O)c2ccccc12 [Compound I-7, 4-{[(6-chloro-2-oxo-1,2-dihydroquinolin-3-yl)methyl]amino}naphthalene-1-carbonitrile] | 1 to 10
